Reference: patent publication USRE42961E1, “Use of autonomic nervous system neurotransmitters inhibition and atrial parasympathetic fibers ablation for the treatment of atrial arrhythmias and to preserve drug effects” (St. Jude Medical, Atrial Fibrillation Division, Inc., priority 2000, dated 2011)
Several values for one entry are separate records, joined by “and”; a condition that tells them apart may be missing. Equal values may be shown once.

What was measured:
atrial fibrillation = test: Canine atrial fibrillation model with vagal and stellar ganglion denervation/stimulation (ERP duration and dispersion, conduction velocity, wavelength, AF duration); assay type: in vivo, dog; details: vagal stimulation in the presence of class III drug therapy
Excerpt: In a group of 14 anaesthetised open chest dogs, atrial fibrillation was induced by fast pacing and up to 10 attempts of arrhythmia initiations during baseline condition, vagal denervation, right and left vagal stimulation #1 (1 Hz, 0.1 ms), right and left stellar ganglions denervation, right and left vagal stimulation #2 (1 Hz, 0.1 ms), right and left stellar ganglions stimulation (10 Hz, 2 ms), and right and left vagal stimulation (1 Hz, 0.1 ms) associated with right and left stellar ganglions stimulation (10 Hz, 2 ms). Under the same conditions described above, the effective refractory period duration and dispersion (at S1S1=200 ms), the conduction velocity and the wavelength are determined. Atrial fibrillation occurrence was evaluated by the mean duration of 10 atrial fibrillation episodes at baseline (for a group of animals when none of the 10 atrial fibrillation episodes at baseline were lasting more than 3 minutes) and following each of the conditions described above. […]
Activation Mapping: Five thin plastic sheets containing 112 bipolar electrodes with 1 mm interpolar and 6 mm interelectrode distances were sewn into position on atrial epicardial surface. […] Each electrogram was analyzed with computer-determined peak-amplitude criteria and was reviewed manually. […] Isochrone maps and activation times for each activation were recorded by the use of IBM ink jet printer. […]

atrial flutter circuit = test: Canine Y-shaped lesion model of sustained stable atrial flutter; reset-response measurement of cycle length, refractory period and excitable gap during neurotransmitter infusion with or without sotalol; assay type: in vivo, dog
Description: In a group of 13 open chest anaesthetised dogs, atrial flutter model was produced during baseline conditions around the tricuspid valve using a Y-shaped lesion in the intercaval area extending to the right atrial appendage. Atrial flutter was induced at the shortest effective refractory period site using fast pacing stimulation (S1S1) of 100-150 ms. This manoeuvre was repeated as much as necessary with more damage in the Y-shaped lesion model to achieve a sustained stable atrial flutter (>10 min) during the baseline conditions. In order to determine the excitable gap duration and composition during this sustained and stable atrial flutter, a diastole was scanned with a single premature extrastimulus, S1S2 (S1S2=]refractory period, flutter cycle length[) to define the atrial flutter circuit composition and duration (flutter cycle length=refractory period+excitable gap). Atrial flutter cycle length, atrial effective refractory period and duration of the excitable gap were then determined. Measures were repeated during a constant infusion into the right coronary artery of norepinephrine (15 μg/min) and acetylcholine (2 μg/min) allowing 15 min for recovery from norepinephrine effects. The effects of norepinephrine and acetylcholine at a constant plasma level of d-sotalol or d,l-sotalol (0.8 mg/kg+0.4 mg/kg/hr) were also studied in 2 different groups of chloralose anaesthetised dogs on the same electrophysiological parameters described above.
Atrial Flutter protocol: All experiments described were in accordance with institutional guidelines for animal experimentation. Fourteen mongrel dogs of either sex, weight 29-45 kg, were studied in the post-absorptive state. General anaesthesia was induced with sodium thiopental (25 mg/kg iv.) and maintained with chloralose (80 mg/kg iv. bolus supplemented by 20 mg/kg/hr maximum as needed). The dogs were intubated and ventilated (Harvard pump) with room air (10 breaths/min, tidal volume to achieve a maximum inspiratory pressure of 20 cm water) to maintain arterial pH 7.35-7.45 and PaO2>80 mm Hg. Arterial and venous cannulae were inserted in the left femoral artery and vein by direct cut down for blood pressure monitoring and drug administration, respectively. An additional venous cannulae was inserted in the right femoral vein or in the right internal jugular vein for blood sampling. Muscular relaxation was then induced with gallamine triethiodide (Flaxedil 100) 3 mg/kg intravenously. A right thoracotomy was performed via the fourth or fifth intercostal space and the pericardium was incised to provide access to the vena cava and the right atrium. […] A second line, extending from the first two-thirds of the way toward the tip of the right atrial appendage and parallel to 1-2 cm above the atrioventricular groove, was similarly incised and sewn over. Five close (2-4 mm) bipolar epicardial silver electrodes (insulated except at the tip) for stimulating and/or recording were sewn around the base of the right atrium within 1 cm of the tricuspid annulus. Three were positioned on the anterior surface and two on the posterior surface (Derakhchan K, et al., 1994). An arterial cannula was inserted in the right coronary artery for neurotransmitter infusion.
Measurement of electrophysiologic parameters: A single lead (II) surface electrocardiogram, atrial electrograms from each of the 5 bipolar electrodes, and the femoral arterial pressure were monitored and recorded using a Nihon Kohden polygraph (Model RM6008). Data were also stored on a Hewlett-Packard tape recorder. Atrial flutter was induced by burst stimulation (20-30 beats at basic cycle length <100 ms). During stable flutter (cycle length variation <10 ms), a premature stimulus was introduced at the site located on this re-entry circuit after every 20th spontaneous beat (T) in 2 ms decrements beginning at coupling intervals equal to the cycle length of this atrial tachycardia. […]

atrial flutter = details: intravenous atropine and propranolol together; supine or upright position; cited from earlier work
[1] = tested on: common human atrial flutter; details: cited from earlier work
[2] = d,l-sotalol group, 7 dogs, NE 15 μg/min, ACh 2 μg/min into right coronary artery, d,l-sotalol 0.8 mg/kg+0.4 mg/kg/hr
[3] = d-sotalol group, 6 dogs, NE 15 μg/min, ACh 2 μg/min into right coronary artery, d-sotalol 0.8 mg/kg+0.4 mg/kg/hr

Compound | Atrial Flutter Cycle Length (AF1CL), mean (atrial flutter circuit; [2]) | effect on atrial flutter cycle length (atrial flutter) | Atrial Effective Refractory Period (AERP), mean (atrial flutter circuit; [2]) | Atrial Flutter Cycle Length (AF1CL), mean (atrial flutter circuit; [3]) | further results
CC(C)NCC(O)c1ccc(NS(C)(=O)=O)cc1 (racemic) [d,1-S, d,l-Sotalol] | 143.0 ms |  |  |  | antiarrhythmic therapeutic effects under vagal stimulation (atrial fibrillation): significantly and markedly reversed
CN1[C@@H]2CC[C@H]1C[C@@H](OC(=O)C(CO)c1ccccc1)C2 (stereo partly shown) [atropine] |  | did not change |  |  | 
CC(=O)OCC[N+](C)(C)C [ACh, acetylcholine] | 119 ± 17 ms and 119.0000 ms and 119.0 ms |  | 64 ± 4 ms and 63.6000 ms and 63.6 ms | 123 ± 15 ms and 122.6667 ms and 122.7 ms | Effective Refractory Period duration (ERPdur), mean (atrial flutter circuit; [3]): 65 ± 5 ms and 64.8000 ms and 64.8 ms; Excitable Gap duration (EGdur), mean (atrial flutter circuit; [3]): 48 ± 16 ms and 47.6000 ms and 47.6 ms
CC[N+](C)(C)c1cccc(O)c1 [edrophonium] |  |  |  |  | effect on monophasic atrial action potential duration or atrial flutter cycle length [1]: no significant effect
NC[C@H](O)c1ccc(O)c(O)c1 [NE, norepinephrine] | 132 ± 8 ms and 131.7500 ms and 131.8 ms |  | 93 ± 7 ms and 93.0000 ms and 93.0 ms | 133 ± 12 ms and 133.0000 ms and 133.0 ms | reversal of d-sotalol effects on atrial flutter cycle length and effective refractory period duration (atrial flutter circuit; in the presence of d-sotalol): significantly reversed; effect on effective refractory period duration (atrial flutter circuit; infusion alone, d-sotalol group, 6 animals): significantly shortened; occurrence of the initiation of atrial flutter (atrial flutter circuit; neurotransmitter infusion, acetylcholine>>norepinephrine): significantly increased
CC(C)NCC(O)COc1cccc2ccccc12 (stereo not shown) [propranolol] |  | did not change |  |  | 
